{"source": "paper PMC5535168", "about": "(Toxins, 2017)", "key": {"mAb AVR1675": {"tested_on": "mAb AVR1675", "format": "binding, mouse"}, "AVR1675 mAb": {"tested_on": "AVR1675 mAb", "format": "binding, mouse"}, "[1]": {"target": "AVR1675 (LFG2 3F3:3D10 IgG1 kappa) (mouse)", "sequence (heavy, as listed by the source)": "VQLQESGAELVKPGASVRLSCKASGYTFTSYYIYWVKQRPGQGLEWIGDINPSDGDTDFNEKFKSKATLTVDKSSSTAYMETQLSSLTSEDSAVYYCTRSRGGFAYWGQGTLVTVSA", "assay": "ELISA"}}, "note": "Values joined by “and” are separate entries in the source; they are usually repeats but may differ in a detail not shown here. Equal entries are not always repeated. Where two headings read alike, the source gives them in different places. Where a SMILES comes first, the peptide text is derived from it. Where no end group is shown, it is not given here. The star is where a group is joined. Biotin = O=C1N[C@H]2[C@H](CS[C@H]2CCCCC(=O)*)N1"}
{"molecule": "CC[C@H](C)[C@H](NC(=O)[C@H](CC(N)=O)NC(=O)[C@@H]1CCCN1)C(=O)N[C@@H](C)C(=O)N[C@@H](CCC(=O)O)C(=O)N[C@@H](CCC(N)=O)C(=O)N[C@@H](Cc1ccc(O)cc1)C(=O)N[C@H](C(=O)N[C@@H](Cc1c[nH]cn1)C(=O)N[C@@H](CCC(N)=O)C(=O)N[C@@H](CC(=O)O)C(=O)N[C@@H](CCC(=O)O)C(=O)N[C@H](C(=O)N[C@@H](Cc1ccc(O)cc1)C(=O)N[C@@H](CCC(=O)O)C(=O)N[C@@H](CCC(N)=O)C(=O)N[C@H](C(=O)N[C@@H](Cc1c[nH]cn1)C(=O)N[C@@H](CO)C(=O)N[C@@H](CCCCN)C(=O)NCC(=O)N[C@@H](CC(C)C)C(=O)N[C@@H](Cc1ccc(O)cc1)C(=O)N[C@H](C(=O)N1CCC[C@H]1C(=O)N[C@@H](CCC(=O)O)C(=O)N[C@@H](CO)C(=O)N[C@@H](CCCNC(=N)N)C(=O)NCC(=O)NCC(=O)NCC(=O)N[C@@H](CO)C(=O)N[C@@H](CCCCNC(=O)CCCC[C@@H]1SC[C@@H]2NC(=O)N[C@@H]21)C(=O)O)C(C)C)C(C)C)[C@@H](C)CC)[C@@H](C)O", "note": "[Native LF extended sequence]", "values": [{"measurement": "% R of Consensus", "setting": "mAb AVR1675", "result": 14, "unit": "%"}, {"measurement": "Response (nm)", "setting": "mAb AVR1675", "result": 0.7024, "unit": "nm"}, {"measurement": "Kd", "setting": "mAb AVR1675; read-out: KD (M) *", "result": "> 1e-07", "unit": "M"}]}
{"molecule": "TVRD D Q I [φD7]", "values": [{"measurement": "Phage ELISA Reactivity (class)", "setting": "AVR1675 mAb", "result": "High (OD 1.78) (key: High = OD > 1.0; Intermediate = OD 0.5–1.0; Low = OD < 0.5)"}]}
{"molecule": "TVRD EP L [φE12]", "values": [{"measurement": "Phage ELISA Reactivity (class)", "setting": "AVR1675 mAb", "result": "High (OD 1.70) (key: High = OD > 1.0; Intermediate = OD 0.5–1.0; Low = OD < 0.5)"}]}
{"molecule": "CC[C@H](C)[C@H](NC(=O)[C@H](CCC(=O)O)NC(=O)[C@H](CC(=O)O)NC(=O)[C@H](CCCCN)NC(=O)[C@H](Cc1ccccc1)NC(=O)[C@@H](N)[C@@H](C)O)C(=O)NCC(=O)NCC(=O)NCC(=O)N[C@@H](CO)C(=O)N[C@@H](CCCCNC(=O)CCCC[C@@H]1SC[C@@H]2NC(=O)N[C@@H]21)C(=O)O", "note": "[φC8-derived Reference Sequence] (H-TFKDEIGGGSK(Biotin)-OH; N-terminus and C-terminus assumed)", "values": [{"measurement": "% R of Consensus", "setting": "mAb AVR1675", "result": 100, "unit": "%"}, {"measurement": "Binding relative to the LF-sequence derived oligopeptides", "setting": "mAb AVR1675", "result": "seven-fold higher binding"}, {"measurement": "R (binding response, running text)", "setting": "mAb AVR1675", "result": 4.84, "unit": "nm"}, {"measurement": "Response (nm)", "setting": "mAb AVR1675", "result": 4.8387, "unit": "nm"}, {"measurement": "Kd", "setting": "mAb AVR1675; read-out: KD (M) *", "result": "1.39e-08", "unit": "M"}, {"measurement": "Kd", "setting": "mAb AVR1675; read-out: KD (equilibrium affinity constant)", "result": "9.97e-09", "unit": "M"}]}
{"molecule": "CC[C@H](C)[C@H](NC(=O)[C@H](CCC(=O)O)NC(=O)[C@H](CC(=O)O)NC(=O)[C@H](CCC(N)=O)NC(=O)[C@H](Cc1c[nH]cn1)NC(=O)[C@@H](N)[C@@H](C)O)C(=O)N[C@@H](Cc1ccc(O)cc1)C(=O)N[C@@H](CCC(=O)O)C(=O)N[C@@H](CCC(N)=O)C(=O)N[C@@H](CCCCNC(=O)CCCC[C@@H]1SC[C@@H]2NC(=O)N[C@@H]21)C(=O)O", "note": "[Native LF core sequence] (H-THQDEIYEQK(Biotin)-OH)", "values": [{"measurement": "% R of Consensus", "setting": "mAb AVR1675", "result": 14, "unit": "%"}, {"measurement": "Response (nm)", "setting": "mAb AVR1675", "result": 0.7024, "unit": "nm"}, {"measurement": "Kd", "setting": "mAb AVR1675; read-out: KD (M) *", "result": "> 1e-07", "unit": "M"}]}
{"molecule": "TFLDDAPGGGS (not fully specified)", "note": "[phage-displayed peptide T-F-L-D-D-A-P (phage clone φE2)]", "values": [{"measurement": "OD (phage ELISA reactivity)", "setting": "[1]", "result": 1.22, "unit": "OD"}]}
{"molecule": "TYLDDLYGGGS (not fully specified)", "note": "[phage-displayed peptide T-Y-L-D-D-L-Y (phage clones φB6 and φD11)]", "values": [{"measurement": "OD (phage ELISA reactivity)", "setting": "[1]", "result": "1.77 OD and 1.7 OD"}]}
{"molecule": "TYKDDIRGGGS (not fully specified)", "note": "[phage-displayed peptide T-Y-K-D-D-I-R (phage clones φB5 and φD2)]", "values": [{"measurement": "OD (phage ELISA reactivity)", "setting": "[1]", "result": "1.65 OD and 1.78 OD"}]}
{"molecule": "TVLDDVAGGGS (not fully specified)", "note": "[phage-displayed peptide T-V-L-D-D-V-A (phage clone φC2)]", "values": [{"measurement": "OD (phage ELISA reactivity)", "setting": "[1]", "result": 0.36, "unit": "OD"}]}
{"molecule": "TFKDDIHGGGS (not fully specified)", "note": "[phage-displayed peptide T-F-K-D-D-I-H (phage clone φC9)]", "values": [{"measurement": "OD (phage ELISA reactivity)", "setting": "[1]", "result": 1.33, "unit": "OD"}]}
{"molecule": "TFKDDGYGGGS (not fully specified)", "note": "[phage-displayed peptide T-F-K-D-D-G-Y (phage clone φD4)]", "values": [{"measurement": "OD (phage ELISA reactivity)", "setting": "[1]", "result": 0.08, "unit": "OD"}]}
{"molecule": "TVRDEPLGGGS (not fully specified)", "note": "[phage-displayed peptide T-V-R-D-E-P-L (phage clone φE12)]", "values": [{"measurement": "OD (phage ELISA reactivity)", "setting": "[1]", "result": 1.7, "unit": "OD"}]}
{"molecule": "TVRDDQIGGGS (not fully specified)", "note": "[phage-displayed peptide T-V-R-D-D-Q-I (phage clone φD7)]", "values": [{"measurement": "OD (phage ELISA reactivity)", "setting": "[1]", "result": 1.78, "unit": "OD"}]}
{"molecule": "TWRDDIPGGGS (not fully specified)", "note": "[phage-displayed peptide T-W-R-D-D-I-P (phage clone φD8)]", "values": [{"measurement": "OD (phage ELISA reactivity)", "setting": "[1]", "result": 0.79, "unit": "OD"}]}
{"molecule": "TFKDDLFGGGS (not fully specified)", "note": "[phage-displayed peptide T-F-K-D-D-L-F (phage clone φC7)]", "values": [{"measurement": "OD (phage ELISA reactivity)", "setting": "[1]", "result": 1.56, "unit": "OD"}]}
{"molecule": "TYRDDPPGGGS (not fully specified)", "note": "[phage-displayed peptide T-Y-R-D-D-P-P (phage clone φE5)]", "values": [{"measurement": "OD (phage ELISA reactivity)", "setting": "[1]", "result": 1.55, "unit": "OD"}]}
{"molecule": "TFRDEPMGGGS (not fully specified)", "note": "[phage-displayed peptide T-F-R-D-E-P-M (phage clone φB9)]", "values": [{"measurement": "OD (phage ELISA reactivity)", "setting": "[1]", "result": 1.71, "unit": "OD"}]}
